Results: US11161839B2, “2-quinolone derived inhibitors of BCL6” (Cancer Research Technology Limited, priority 2017, dated 2021)
Where two headings read alike, the source gives them in different places.

Columns and labels:
[1] = target: BCL6-NCOR2(SMRT) corepressor protein-protein interaction (Homo sapiens (Human), UniProt P41182); test: NanoBRET cell assay in transfected HEK293T cells; assay type: cell-based
[2] = target: human BCL6 BTB domain (Trx-6xHis-BCL6) (Homo sapiens (Human), UniProt P41182); test: HTRF in vitro assay (BCL6 BTB domain / BCOR-AF633 peptide); assay type: binding; conditions: for IC50: read-out: HTRF pIC50 (converted)
[3] = further generated data (Table 2b), HEK293T cells, 6 hr, read-out: NanoBRET cell pIC50 (converted)
[4] = further generated data (Table 1b), 1 nM Trx-6xHis-BCL6, 0.5 nM anti-6xHis-Terbium cryptate
[5] = initially generated data (Table 1a), 10 nM Trx-6xHis-BCL6, 1 nM anti-6xHis-Terbium cryptate

IC50 [1, 3] [µM] | HTRF pIC50 [2, 4] | IC50 [2, 4] [µM] | HTRF pIC50 [2, 5] | Compound | IC50 [1] [µM]
2.69 | 6.31 |  |  | COCC1CCN1c1ncc(Cl)c(Nc2ccc3c(c2)c(N[C@H](C)C2CC2)cc(=O)n3C)n1 (stereo partly drawn) [Example 26b, 6-((5-chloro-2-(2-(methoxymethyl)azetidin-1-yl)pyrimidin-4-yl)amino)-4-(((R)-1-cyclopropylethyl)amino)-1-methylquinolin-2(1H)-one: formic acid (1:1)] | 
1.12 |  | 0.288 |  | CNC(=O)c1cc(Nc2ccc3c(c2)c(NC(C)C2CC2)cc(=O)n3C)c(C#N)c(Cl)n1 (centres unmarked) [Example 7b, 6-chloro-5-cyano-4-((4-((1-cyclopropylethyl)amino)-1-methyl-2-oxo-1,2-dihydroquinolin-6-yl)amino)-N-methylpicolinamide] | 
2.69 | 6.44 |  |  | CCOC(=O)c1cc(Nc2ccc3c(c2)c(NC(C)c2ncccn2)cc(=O)n3C)n2nccc2n1 (centres unmarked) [Example 10q, ethyl 7-((1-methyl-2-oxo-4-((1-(pyrimidin-2-yl)ethyl)amino)-1,2-dihydroquinolin-6-yl)amino)pyrazolo[1,5-a]pyrimidine-5-carboxylate] | 
1.29 | 6.52 |  |  | Cn1c(=O)cc(NC(C)(C)c2ccccn2)c2cc(Nc3ccnc(Cl)c3C#N)ccc21 [Example 11b, 2-chloro-4-((1-methyl-2-oxo-4-((2-(pyridin-2-yl)propan-2-yl)amino)-1,2-dihydroquinolin-6-yl)amino)nicotinonitrile:formic acid (1:1)] | 
0.55 | 7.78 |  |  | Cn1c(=O)cc(NC(C)(C)c2ncccn2)c2cc(Nc3cc(C(=O)N4CCC4)nc(Cl)c3C#N)ccc21 [Example 8a, 6-(Azetidine-1-carbonyl)-2-chloro-4-((1-methyl-2-oxo-4-((2-(pyrimidin-2-yl)propan-2-yl)amino)-1,2-dihydroquinolin-6-yl)amino)nicotinonitrile] | 
2.63 | 6.58 |  |  | CN(C)C(=O)C1CCN(c2ncc(Cl)c(Nc3ccc4c(c3)c(NC(C)(C)c3ncccn3)cc(=O)n4C)n2)CC1 [Example 16a, 1-(5-chloro-4-((1-methyl-2-oxo-4-((2-(pyrimidin-2-yl)propan-2-yl)amino)-1,2-dihydroquinolin-6-yl)amino)pyrimidin-2-yl)-N,N-dimethylpiperidine-4-carboxamide] | 
0.977 | 6.85 |  |  | CNC(=O)c1cc(Nc2ccc3c(c2)c(NC(C)(C)COC)cc(=O)n3C)c(C#N)c(Cl)n1 [Example 7d, 6-chloro-5-cyano-4-[[4-[(2-methoxy-1,1-dimethyl-ethyl)amino]-1-methyl-2-oxo-6-quinolyl]amino]-N-methyl-pyridine-2-carboxamide] | 
29.5 |  | 0.891 |  | CNC(=O)c1cc(Nc2ccc3c(c2)c(NC(C)c2ncccn2)cc(=O)n3C)c(C#N)cn1 (centres unmarked) [Example 19c] | 
1.29 |  | 0.302 |  | C[C@@H](Nc1cc(=O)n(C)c2ccc(Nc3nc(N4CCC(C(=O)N(C)C)CC4)ncc3Cl)cc12)C1CC1 [Example 12b, (R)-1-(5-chloro-4-((4-((1-cyclopropylethyl)amino)-1-methyl-2-oxo-1,2-dihydroquinolin-6-yl)amino)pyrimidin-2-y1)-N,N-dimethylpiperidine-4-carboxamide] | 
0.933 | 7.31 |  | 6.76 | CNC(=O)c1cc(Nc2ccc3c(c2)c(NC(C)c2ncccn2)cc(=O)n3C)c(C#N)c(Cl)n1 (centres unmarked) [Example 1v, 6-chloro-5-cyano-N-methyl-4-[[1-methyl-2-oxo-4-(1-pyrimidin-2-ylethylamino)-6-quinolyl]amino]pyridine-2-carboxamide] | 
8.71 | 6.51 |  |  | COCC(C)(C)Nc1cc(=O)n(C)c2ccc(Nc3ccnc(Cl)c3C#N)cc12 [Example 19d, 2-chloro-4-((4-((1-methoxy-2-methylpropan-2-yl)amino)-1-methyl-2-oxo-1,2-dihydroquinolin-6-yl)amino)nicotinonitrile] | 
5.5 | 6.57 |  |  | CC(Nc1nc(=O)n(C)c2ccc(Nc3ccnc(Cl)c3Cl)cc12)c1ncccn1 (centres unmarked) [Example 6c, 6-((2,3-dichloropyridin-4-yl)amino)-1-methyl-4-((1-(pyrimidin-2-yl)ethyl)amino)quinazolin-2(1H)-one] | 
2.34 | 6.44 |  |  | Cn1c(=O)cc(NC(c2ncccn2)C2CC2)c2cc(Nc3ccnc(Cl)c3C#N)ccc21 (centres unmarked) [Example 10p, 2-chloro-4-((4-((cyclopropyl(pyrimidin-2-yl)methyl)amino)-1-methyl-2-oxo-1,2-dihydroquinolin-6-yl)amino)nicotinonitrile] | 
20.9 | 6.39 |  | 6.43 | C[C@@H](CO)Nc1cc(=O)n(C)c2ccc(Nc3ccnc(Cl)c3C#N)cc12 [Example 3g, (S)-2-Chloro-4-((4-((1-hydroxypropan-2-yl)amino)-1-methyl-2-oxo-1,2-dihydroquinolin-6-yl)amino)nicotinonitrile] | 
3.47 | 6.34 |  |  | CC(Nc1cc(=O)n(C)c2ccc(Nc3nc(N4CCC(CC(=O)N(C)C)CC4)ncc3Cl)cc12)c1ncccn1 (centres unmarked) [Example 17e, 2-(1-(5-chloro-4-((1-methyl-2-oxo-4-((1-(pyrimidin-2-yl)ethyl)amino)-1,2-dihydroquinolin-6-yl)amino)pyrimidin-2-yl)piperidin-4-yl)-N,N-dimethylacetamide:formic acid (1:1)] | 
2.29 | 6.50 |  |  | CC(C)(Nc1cc(=O)n(CC2CCCCC2)c2ccc(Nc3ccnc(Cl)c3C#N)cc12)c1ncccn1 [Example 10o, 2-chloro-4-((1-(cyclohexylmethyl)-2-oxo-4-((2-(pyrimidin-2-yl)propan-2-yl)amino)-1,2-dihydroquinolin-6-yl)amino)nicotinonitrile] | 
1.82 | 6.09 |  |  | C[C@@H](Nc1nc(=O)n(C)c2ccc(Nc3ccnc(Cl)c3Cl)cc12)C1CC1 [Example 6d, (R)-4-((1-cyclopropylethyl)amino)-6-((2,3-dichloropyridin-4-yl)amino)-1-methylquinazolin-2(1H)-one] | 
5.01 | 6.37 |  |  | CN(C)C(=O)C1CCN(c2ncc(Cl)c(Nc3ccc4c(c3)c(NC3(C#N)CC3)cc(=O)n4C)n2)CC1 [Example 16b, 1-(5-chloro-4-((4-((1-cyanocyclopropyl)amino)-1-methyl-2-oxo-1,2-dihydroquinolin-6-yl)amino)pyrimidin-2-y1)-N,N-dimethylpiperidine-4-carboxamide] | 
2.34 |  | 0.251 |  | COC1CCC1Nc1cc(=O)n(C)c2ccc(Nc3ccnc(Cl)c3C#N)cc12 (racemic) [Example 22a, rac-2-chloro-4-((4-(((1R,2S)-2-methoxycyclobutyl)amino)-1-methyl-2-oxo-1,2-dihydroquinolin-6-yl)amino)nicotinonitrile or rac-2-chloro-4-((4-(((1R,2R)-2-methoxycyclobutyl)amino)-1-methyl-2-oxo-1,2-dihydroquinolin-6-yl)amino)nicotinonitrile] | 
1.78 | 6.42 |  |  | C[C@@H](Nc1cc(=O)n(C)c2ccc(Nc3cc(C(=O)N4CCC4)ncc3Cl)cc12)C1CC1 [Example 15d, (R)-6-((2-(azetidine-1-carbonyl)-5-chloropyridin-4-yl)amino)-4-((1-cyclopropylethyl)amino)-1-methylquinolin-2(1H)-one] | 
5.13 | 6.45 |  |  | CCC(C)(Nc1cc(=O)n(C)c2ccc(Nc3ccnc(Cl)c3C#N)cc12)c1ncccn1 (centres unmarked) [Example 24c, 2-chloro-4-((1-methyl-2-oxo-4-((2-(pyrimidin-2-yl)butan-2-yl)amino)-1,2-dihydroquinolin-6-yl)amino)nicotinonitrile] | 
1.78 | 6.48 |  |  | CC(Nc1cc(=O)n(C)c2ccc(Nc3nc(N4C[C@@H](C)O[C@@H](C)C4)ncc3Cl)cc12)c1ncccn1 (stereo partly drawn) [Example 17a, 6-((5-chloro-2-((2S,6R)-2,6-dimethylmorpholino)pyrimidin-4-yl)amino)-1-methyl-4-((1-(pyrimidin-2-yl)ethyl)amino)quinolin-2(1H)-one] | 
3.89 | 6.66 |  |  | Cc1nc(-n2ccc(C(F)(F)F)n2)nc(Nc2ccc3c(c2)c(NC(C)(C)c2ncccn2)cc(=O)n3C)c1Cl [Example 14a, 6-((5-chloro-6-methyl-2-(3-(trifluoromethyl)-1H-pyrazol-1-yl)pyrimidin-4-yl)amino)-1-methyl-4-((2-(pyrimidin-2-yl)propan-2-yl)amino)quinolin-2(1H)-one] | 
0.676 |  | 0.0282 |  | COC[C@@H]1CCCN1C(=O)c1cc(Nc2ccc3c(c2)c(NC(C)(C)c2ncccn2)cc(=O)n3C)c(C#N)c(Cl)n1 [Example 8e] | 

Compound | IC50 [1, 3] [µM] | HTRF pIC50 [2, 4] | IC50 [2, 4] [µM] | HTRF pIC50 [2, 5] | IC50 [1] [µM]
Cn1c(=O)cc(NC(C)(C)c2ncc(C3CC3)cn2)c2cc(Nc3ccnc(Cl)c3C#N)ccc21 [Example 10a, 2-chloro-4-((4-((2-(5-cyclopropylpyrimidin-2-yl)propan-2-yl)amino)-1-methyl-2-oxo-1,2-dihydroquinolin-6-yl)amino)nicotinonitrile] | 0.513 | 7.53 |  |  | 
Cc1cnc(C(C)Nc2cc(=O)n(C)c3ccc(Nc4ccnc(Cl)c4C#N)cc23)nc1 (centres unmarked) [Example 10f] |  | 7.12 |  |  | 1.07
CC(Nc1cc(=O)n(CC2CC2)c2ccc(Nc3ccnc(Cl)c3C#N)cc12)c1ncccn1 (centres unmarked) [Example 11h, 2-chloro-4-((1-(cyclopropylmethyl)-2-oxo-4-((1-(pyrimidin-2-yl)ethyl)amino)-1,2-dihydroquinolin-6-yl)amino)nicotinonitrile] | 2.82 | 6.65 |  |  | 
